# Reference: patent US9540325B2, “N1-cyclic amine-N5-substituted phenyl biguanide derivatives, methods of preparing the same and pharmaceutical composition comprising the same” (Immunomet Therapeutics, Inc., priority 2011, dated 2017)
# What was measured:
# [1] = tested on: AMPKα; assay: Measurement of AMPK activation effect (AMPKα Thr172 phosphorylation immunoassay) in MCF7 cells; format: cell-based, human; details: 24 hours; for AMPK activation effect at 10 μM (%) / AMPK activation effect at 50 μM (%): relative to untreated cells; for AMPK activation effect AC150: concentration at which AMPK activation reached 150%
# Procedure: MCF7 cells derived from human breast cancer cells (commercially available from the Korean Cell Line Bank) were used, and the AMPK activation effect of the biguanide derivative was confirmed using an AMPKα immunoassay kit (Invitrogen, Catalog No. KHO0651).
# MCF7 cells were cultured in a DMEM medium supplemented with 10% fetal bovine serum. Thereafter, the cultured MCF7 cells were put into a 6-well plate with approximately 5×10^5 cells per well and cultured in an incubator supplied with 5% CO2. Culture media were treated with the derivatives synthesized in the examples at contents of 5, 10 and 50 μM, and then cultured for 24 hours. Metformin hydrochloride was used as the control, and the culture media were treated with 0.05, 0.5, 1, 2, 5 and 10 mM metformin hydrochloride, and then tested in the same manner as described in the derivatives synthesized in the examples. Subsequently, the cells were lysed according to a method presented in the operation manual of the AMPKα immunoassay kit, and 20 μg of a cell lysate was then yielded through protein assay. Thereafter, the AMPK activation effect was obtained by determining the degree of phosphorylation of 172nd threonine residue (Thr172) of the AMPKα from the cell lysate according to the method presented in the operation manual of the AMPKα immunoassay kit. […] A curve graph showing AMPK activation according to the concentration of the treated compounds was plotted based on the obtained AMPKα activation results, the concentration (activation concentration 150, AC150) value of the compound whose AMPK activation reached 150% was calculated using a GraphPad Prism 5.0 program, and the degrees of AMPK activation were obtained when concentrations of the treated biguanide derivatives were 10 μM and 50 μM and the metformin hydrochloride was 50 μM
# [2] = tested on: HCT116 cells; assay: Measurement of effect of inhibiting cancer cell proliferation (MTT); format: cell-based, human; details: Homo sapiens; for inhibition at 100 µM: HCT-116, 100 μM, 48 hours, read-out: Cell Growth Inhibition (%) at 100 μM; for GI50: HCT-116, 48 h
# Source text: HCT116 cells derived from human colorectal cancer (commercially available from the Korean Cell Line Bank) were used, and the effect of inhibiting cancer cell proliferation of the biguanide derivative was confirmed by measuring the concentration value (cell growth inhibition concentration, GIC50) at which cell growth was inhibited by 50% using a 3-(4,5-dimethylthiazol-2-yl)-2,5-diphenyltetrazolium bromide (MTT) reagent.
# First, HCT116 cells were put on a 96-well plate and cultured in a DMEM medium containing 10% fetal bovine serum for 16 hours so that the cellcount in each well was approximately 5,000. Subsequently, to obtain the GIC50 value of each compound, culture media were treated with 100 μM, 25 μM, 6.25 μM, 1.56 μM or 0.39 μM of the compound, and then cultured for 48 hours. Metformin hydrochloride was used as the control, and the culture media were treated with 25, 12.5, 2.5, 0.5, 0.1 mM metformin hydrochloride, and then tested in the same manner as described in the derivatives synthesized in the examples. In order to determine whether the cells survived after treatment with the compounds, MTT was added to the culture media which were then cultured for another 3 hours. Formed formazane crystals were dissolved using dimethyl sulfoxide (DMSO), and the absorbance of the resulting solution was measured at 560 nm. After the 48-hour culture, […] was indicated as cell viability (%) according to each treated concentration. A cell viability curve graph was plotted and the concentration (GIC50) value of the compound at which the growth was inhibited by 50% was calculated to confirm the inhibition effect of cancer cell proliferation. Also, the cell growth viability (%) when the concentration of the treated biguanide derivative and the metformin hydrochloride as the control were 100 μM was shown.
Structure (SMILES),GI50 [2] [µM],melting point [°C],AMPK activation effect at 10 μM (%) [1] [%],AMPK activation effect at 50 μM (%) [1] [%],AMPK activation effect AC150 [1] [µM],inhibition at 100 µM [2] [%]
"Cl.N=C(NC(=N)N1CCOCC1)Nc1cccc(Br)c1 [Example 22, N1-morpholine-N5-(3-bromo)phenyl biguanide hydrochloride]",> 100,264 to 265,127,119,2.3,44.5
"Cl.N=C(NC(=N)N1CCCC1)Nc1cccc(C(F)(F)F)c1 [Example 23, N1-pyrrolidine-N5-(3-trifluoromethyl)phenyl biguanide hydrochloride]",38.9,286 to 287,199,578,4.4,97.6
"Cl.N=C(NC(=N)N1CCCCC1)Nc1cccc(C(F)(F)F)c1 [Example 24, N1-piperidine-N5-(3-trifluoromethyl)phenyl biguanide hydrochloride]",6.9,264 to 265,388,–,2.6,97.6
"Cl.N=C(NC(=N)N1CCC1)Nc1ccc(C(F)(F)F)cc1 [Example 25, N1-azetidine-N5-(4-trifluoromethyl)phenyl biguanide hydrochloride]",27.6,258 to 259,99,156,46.6,96.3
"Cl.N=C(NC(=N)N1CCCC1)Nc1cccc(OC(F)(F)F)c1 [Example 28, N1-pyrrolidine-N5-(3-trifluoromethoxy)phenyl biguanide hydrochloride]",19,261 to 262,158,424,6.9,97.6
"Cl.N=C(NC(=N)N1CCCCC1)Nc1cccc(OC(F)(F)F)c1 [Example 29, N1-piperidine-N5-(3-trifluoromethoxy)phenyl biguanide hydrochloride]",5.9,264 to 266,400,–,1.1,98
"Cl.N=C(NC(=N)N1CCC1)Nc1ccc(OC(F)(F)F)cc1 [Example 31, N1-azetidine-N5-(4-trifluoromethoxy)phenyl biguanide hydrochloride]",22.9,257 to 259,145,232,15.3,96.5
"Cl.N=C(NC(=N)N1CCOCC1)Nc1ccc(OC(F)(F)F)cc1 [Example 34, N1-morpholine-N5-(4-trifluoromethoxy)phenyl biguanide hydrochloride]",47.3,263 to 264,121,168,33.7,98
"CN1CCN(C(=N)NC(=N)Nc2ccc(OC(F)(F)F)cc2)CC1.Cl [Example 35, N1-(4-methyl)piperazine-N5-(4-trifluoromethoxy)phenyl biguanide hydrochloride]",46.7,258 to 259,207,542,5.0,76.5
"Cl.N=C(NC(=N)N1CCCCC1)Nc1cccc(N)c1 [Example 36, N1-piperidine-N5-(3-amino)phenyl biguanide hydrochloride]",> 100,220 to 222,62,175,36.8,43.6
"CN(C)c1ccc(NC(=N)NC(=N)N2CCCCC2)cc1.Cl [Example 37, N1-piperidine-N5-(4-dimethylamino)phenyl biguanide hydrochloride]",> 100,253 to 255,123,286,13.9,32.2

# Now from value to molecule, other results behind:
GI50 [2] [µM],melting point [°C],Structure (SMILES),AMPK activation effect at 10 μM (%) [1] [%],AMPK activation effect at 50 μM (%) [1] [%],AMPK activation effect AC150 [1] [µM],inhibition at 100 µM [2] [%]
> 100,258 to 260,"CC(=O)Nc1ccc(NC(=N)NC(=N)N2CCCCC2)cc1.Cl [Example 38, N1-piperidine-N5-(4-acetamide)phenyl biguanide hydrochloride]",94,144,>50,0
> 100,265 to 267,"CC(=O)Nc1cccc(NC(=N)NC(=N)N2CCCCC2)c1.Cl [Example 39, N1-piperidine-N5-(3-acetamide)phenyl biguanide hydrochloride]",100,145,>50,25.5
> 100,241 to 242,"Cl.N=C(NC(=N)N1CCCCC1)Nc1ccc(-c2nnn[nH]2)cc1 [Example 40, N1-piperidine-N5-(4-(1H-tetrazole-5-yl))phenyl biguanide hydrochloride]",41,55,>50,0.9
> 100,251 to 253,"CS(=O)(=O)Nc1cccc(NC(=N)NC(=N)N2CCCCC2)c1.Cl [Example 41, N1-piperidine-N5-(3-methylsulfonamide)phenyl biguanide hydrochloride]",86,125,>50,18.8
37.1,264 to 265,"CSc1ccc(NC(=N)NC(=N)N2CCCCC2)cc1.Cl [Example 43, N1-piperidine-N5-(4-methylthio)phenyl biguanide hydrochloride]",239,547,4.1,98
> 100,234 to 236,"COc1cc(NC(=N)NC(=N)N2CCCCC2)cc(OC)c1.Cl [Example 45, N1-piperidine-N5-(3,5-dimethoxy)phenyl biguanide hydrochloride]",232,249,2.7,41.3
5.6,269 to 270,"Cl.N=C(NC(=N)N1CCCCC1)Nc1ccc(F)c(C(F)(F)F)c1 [Example 46, N1-piperidine-N5-(4-fluoro-3-trifluoromethyl)phenyl biguanide hydrochloride]",261,–,1.3,97
1.9,269 to 270,"Cl.N=C(NC(=N)N1CCCCC1)Nc1ccc(Cl)c(C(F)(F)F)c1 [Example 47, N1-piperidine-N5-(4-chloro-3-trifluoromethyl)phenyl biguanide hydrochloride]",169,–,7.3,96.7
3.9,260 to 261,"Cl.N=C(NC(=N)N1CCCCC1)Nc1ccc(F)c(OC(F)(F)F)c1 [Example 50, N1-piperidine-N5-(4-fluoro-3-trifluoromethoxy)phenyl biguanide hydrochloride]",127,–,>50,97
